Data taken from ChEMBL document CHEMBL3112480, “γ-Alkylidene-γ-lactones and isobutylpyrrol-2(5H)-ones analogues to rubrolides as inhibitors of biofilm formation by gram-positive and gram-negative bacteria” (Bioorg Med Chem Lett, 2014).
Values after ≈ are worked out from the molar mass of the structure shown.

How the values were obtained:
[1] = test system: Staphylococcus epidermidis; test: Antibacterial activity against Staphylococcus epidermidis ATCC 35547 assessed as effect on planktonic growth at 43.8 ug/ml after 20 hrs relative to control; assay type: functional
Pseudomonas aeruginosa [2] = test: Antibacterial activity against Pseudomonas aeruginosa ATCC 27853 assessed as effect on planktonic growth at 5.5 ug/ml after 20 hrs relative to control; assay type: functional
[3] = test system: Staphylococcus epidermidis; test: Antibacterial activity against Staphylococcus epidermidis ATCC 35547 assessed as effect on planktonic growth at 21.9 ug/ml after 20 hrs relative to control; assay type: functional
Streptococcus mutans [4] = test: Antibacterial activity against Streptococcus mutans ATCC 25175 assessed as effect on planktonic growth at 10.9 ug/ml after 20 hrs relative to control; assay type: functional
Staphylococcus aureus [5] = test: Antibacterial activity against Staphylococcus aureus ATCC 25923 assessed as effect on planktonic growth at 10.9 ug/ml after 20 hrs relative to control; assay type: functional
[6] = test system: Staphylococcus epidermidis; test: Antibacterial activity against Staphylococcus epidermidis ATCC 35547 assessed as effect on planktonic growth at 5.5 ug/ml after 20 hrs relative to control; assay type: functional
Pseudomonas aeruginosa [7] = test: Antibacterial activity against Pseudomonas aeruginosa ATCC 27853 assessed as effect on planktonic growth at 21.9 ug/ml after 20 hrs relative to control; assay type: functional
Staphylococcus aureus [8] = test: Antibacterial activity against Staphylococcus aureus ATCC 25923 assessed as effect on planktonic growth at 5.5 ug/ml after 20 hrs relative to control; assay type: functional
Streptococcus mutans [9] = test: Antibacterial activity against Streptococcus mutans ATCC 25175 assessed as effect on planktonic growth at 0.34 ug/ml after 20 hrs relative to control; assay type: functional
Streptococcus mutans [10] = test: Antibacterial activity against Streptococcus mutans ATCC 25175 assessed as effect on planktonic growth at 2.73 ug/ml after 20 hrs relative to control; assay type: functional
[11] = test system: Staphylococcus epidermidis; test: Antibacterial activity against Staphylococcus epidermidis ATCC 35547 assessed as effect on planktonic growth at 0.17 ug/ml after 20 hrs relative to control; assay type: functional
Streptococcus mutans [12] = test: Antibacterial activity against Streptococcus mutans ATCC 25175 assessed as effect on planktonic growth at 1.37 ug/ml after 20 hrs relative to control; assay type: functional
Staphylococcus aureus [13] = test: Antibacterial activity against Staphylococcus aureus ATCC 25923 assessed as effect on planktonic growth at 1.37 ug/ml after 20 hrs relative to control; assay type: functional
Pseudomonas aeruginosa [14] = test: Antibacterial activity against Pseudomonas aeruginosa ATCC 27853 assessed as effect on planktonic growth at 43.8 ug/ml after 20 hrs relative to control; assay type: functional
Pseudomonas aeruginosa [15] = test: Antibacterial activity against Pseudomonas aeruginosa ATCC 27853 assessed as inhibition of biofilm formation after 20 hrs by crystal-violet staining method; assay type: functional, organism-based; conditions: for IC50: ATCC 27853, 20 h
Streptococcus mutans [16] = test: Antibacterial activity against Streptococcus mutans ATCC 25175 assessed as effect on planktonic growth at 5.5 ug/ml after 20 hrs relative to control; assay type: functional
Staphylococcus aureus [17] = test: Antibacterial activity against Staphylococcus aureus ATCC 25923 assessed as effect on planktonic growth at 0.34 ug/ml after 20 hrs relative to control; assay type: functional
Pseudomonas aeruginosa [18] = test: Antibacterial activity against Pseudomonas aeruginosa ATCC 27853 assessed as effect on planktonic growth at 0.17 ug/ml after 20 hrs relative to control; assay type: functional
[19] = test system: Staphylococcus epidermidis; test: Antibacterial activity against Staphylococcus epidermidis ATCC 35547 assessed as inhibition of biofilm formation after 20 hrs by crystal-violet staining method; assay type: functional, organism-based; conditions: for IC50: ATCC 35547, 20 h
[20] = test system: Staphylococcus epidermidis; test: Antibacterial activity against Staphylococcus epidermidis ATCC 35547 assessed as effect on planktonic growth at 0.34 ug/ml after 20 hrs relative to control; assay type: functional
Streptococcus mutans [21] = test: Antibacterial activity against Streptococcus mutans ATCC 25175 assessed as effect on planktonic growth at 43.8 ug/ml after 20 hrs relative to control; assay type: functional
Pseudomonas aeruginosa [22] = test: Antibacterial activity against Pseudomonas aeruginosa ATCC 27853 assessed as effect on planktonic growth at 2.73 ug/ml after 20 hrs relative to control; assay type: functional
Pseudomonas aeruginosa [23] = test: Antibacterial activity against Pseudomonas aeruginosa ATCC 27853 assessed as effect on planktonic growth at 10.9 ug/ml after 20 hrs relative to control; assay type: functional
Staphylococcus aureus [24] = test: Antibacterial activity against Staphylococcus aureus ATCC 25923 assessed as effect on planktonic growth at 2.73 ug/ml after 20 hrs relative to control; assay type: functional
Streptococcus mutans [25] = test: Antibacterial activity against Streptococcus mutans ATCC 25175 assessed as effect on planktonic growth at 0.68 ug/ml after 20 hrs relative to control; assay type: functional
[26] = test system: Staphylococcus epidermidis; test: Antibacterial activity against Staphylococcus epidermidis ATCC 35547 assessed as effect on planktonic growth at 10.9 ug/ml after 20 hrs relative to control; assay type: functional
Staphylococcus aureus [27] = test: Antibacterial activity against Staphylococcus aureus ATCC 25923 assessed as effect on planktonic growth at 0.17 ug/ml after 20 hrs relative to control; assay type: functional
Pseudomonas aeruginosa [28] = test: Antibacterial activity against Pseudomonas aeruginosa ATCC 27853 assessed as effect on planktonic growth at 0.68 ug/ml after 20 hrs relative to control; assay type: functional
Pseudomonas aeruginosa [29] = test: Antibacterial activity against Pseudomonas aeruginosa ATCC 27853 assessed as effect on planktonic growth at 1.37 ug/ml after 20 hrs relative to control; assay type: functional
Staphylococcus aureus [30] = test: Antibacterial activity against Staphylococcus aureus ATCC 25923 assessed as effect on planktonic growth at 87.5 ug/ml after 20 hrs relative to control; assay type: functional
Staphylococcus aureus [31] = test: Antibacterial activity against Staphylococcus aureus ATCC 25923 assessed as effect on planktonic growth at 43.8 ug/ml after 20 hrs relative to control; assay type: functional
[32] = test system: Staphylococcus epidermidis; test: Antibacterial activity against Staphylococcus epidermidis ATCC 35547 assessed as effect on planktonic growth at 1.37 ug/ml after 20 hrs relative to control; assay type: functional
[33] = test system: Staphylococcus epidermidis; test: Antibacterial activity against Staphylococcus epidermidis ATCC 35547 assessed as effect on planktonic growth at 2.73 ug/ml after 20 hrs relative to control; assay type: functional
[34] = test system: Staphylococcus epidermidis; test: Antibacterial activity against Staphylococcus epidermidis ATCC 35547 assessed as effect on planktonic growth at 0.68 ug/ml after 20 hrs relative to control; assay type: functional
Pseudomonas aeruginosa [35] = test: Antibacterial activity against Pseudomonas aeruginosa ATCC 27853 assessed as effect on planktonic growth at 0.34 ug/ml after 20 hrs relative to control; assay type: functional
Streptococcus mutans [36] = test: Antibacterial activity against Streptococcus mutans ATCC 25175 assessed as effect on planktonic growth at 87.5 ug/ml after 20 hrs relative to control; assay type: functional
[37] = test system: Staphylococcus epidermidis; test: Antibacterial activity against Staphylococcus epidermidis ATCC 35547 assessed as effect on planktonic growth at 87.5 ug/ml after 20 hrs relative to control; assay type: functional
Streptococcus mutans [38] = test: Antibacterial activity against Streptococcus mutans ATCC 25175 assessed as effect on planktonic growth at 21.9 ug/ml after 20 hrs relative to control; assay type: functional
Streptococcus mutans [39] = test: Antibacterial activity against Streptococcus mutans ATCC 25175 assessed as effect on planktonic growth at 0.17 ug/ml after 20 hrs relative to control; assay type: functional
Staphylococcus aureus [40] = test: Antibacterial activity against Staphylococcus aureus ATCC 25923 assessed as effect on planktonic growth at 0.68 ug/ml after 20 hrs relative to control; assay type: functional
Staphylococcus aureus [41] = test: Antibacterial activity against Staphylococcus aureus ATCC 25923 assessed as effect on planktonic growth at 21.9 ug/ml after 20 hrs relative to control; assay type: functional
Pseudomonas aeruginosa [42] = test: Antibacterial activity against Pseudomonas aeruginosa ATCC 27853 assessed as effect on planktonic growth at 87.5 ug/ml after 20 hrs relative to control; assay type: functional

## COc1cccc(/C=C2/C(c3cc(Cl)ccc3OC)=C(Br)C(=O)N2CC(C)C)c1
[1]
  Activity: 24.6%
Pseudomonas aeruginosa [2]
  Activity: -9.1%
[3]
  Activity: 11.3%
Streptococcus mutans [4]
  Activity: 1.2%
Staphylococcus aureus [5]
  Activity: -7.2%
[6]
  Activity: -2.3%
Pseudomonas aeruginosa [7]
  Activity: -10%
Staphylococcus aureus [8]
  Activity: -3.5%
Streptococcus mutans [9]
  Activity: -18.2%
Streptococcus mutans [10]
  Activity: -6.5%
[11]
  Activity: 5.8%
Streptococcus mutans [12]
  Activity: -4.4%
Staphylococcus aureus [13]
  Activity: -5.7%
Pseudomonas aeruginosa [14]
  Activity: -8.9%
Pseudomonas aeruginosa [15]
  inhibition: Dose-dependent effect
  IC50: > 87.5 µg/mL
Streptococcus mutans [16]
  Activity: 2.6%
Staphylococcus aureus [17]
  Activity: -3%
Pseudomonas aeruginosa [18]
  Activity: 3.2%
[19]
  inhibition: Dose-dependent effect
  IC50: 41 µg/mL (≈ 86 µM)
[20]
  Activity: -0.7%
Streptococcus mutans [21]
  Activity: 12.3%
Pseudomonas aeruginosa [22]
  Activity: 0.2%
Pseudomonas aeruginosa [23]
  Activity: -15.5%
Staphylococcus aureus [24]
  Activity: -13.7%
Streptococcus mutans [25]
  Activity: -17.3%
[26]
  Activity: 0.9%
Staphylococcus aureus [27]
  Activity: -2.6%
Pseudomonas aeruginosa [28]
  Activity: 1%
Pseudomonas aeruginosa [29]
  Activity: 0.8%
Staphylococcus aureus [30]
  Activity: 13%
Staphylococcus aureus [31]
  Activity: -11.3%
[32]
  Activity: -2.6%
[33]
  Activity: -3.8%
[34]
  Activity: 5.5%
Pseudomonas aeruginosa [35]
  Activity: 2.8%
Streptococcus mutans [36]
  Activity: 30.8%
[37]
  Activity: 35.5%
Streptococcus mutans [38]
  Activity: 6.2%
Streptococcus mutans [39]
  Activity: -19.6%
Staphylococcus aureus [40]
  Activity: -9.6%
Staphylococcus aureus [41]
  Activity: 7.2%
Pseudomonas aeruginosa [42]
  Activity: -2.1%

## COc1cccc(/C=C2\OC(=O)C(Br)=C2c2cc(Cl)ccc2OC)c1
[1]
  Activity: 5.6%
Pseudomonas aeruginosa [2]
  Activity: -19.4%
[3]
  Activity: -1.3%
Streptococcus mutans [4]
  Activity: 18.8%
Staphylococcus aureus [5]
  Activity: 43.1%
[6]
  Activity: -4.6%
Pseudomonas aeruginosa [7]
  Activity: -11.6%
Staphylococcus aureus [8]
  Activity: 34.4%
Streptococcus mutans [9]
  Activity: 25.7%
Streptococcus mutans [10]
  Activity: 37.3%
[11]
  Activity: 3.7%
Streptococcus mutans [12]
  Activity: 34.3%
Staphylococcus aureus [13]
  Activity: 52.1%
Pseudomonas aeruginosa [14]
  Activity: -8.7%
Pseudomonas aeruginosa [15]
  inhibition: Dose-dependent effect
  IC50: 1.7 µg/mL (≈ 4.03 µM)
Streptococcus mutans [16]
  Activity: 19.7%
Staphylococcus aureus [17]
  Activity: 30.5%
Pseudomonas aeruginosa [18]
  Activity: -1.2%
[19]
  inhibition: Dose-dependent effect
  IC50: > 87.5 µg/mL
[20]
  Activity: 0.1%
Streptococcus mutans [21]
  Activity: 22.7%
Pseudomonas aeruginosa [22]
  Activity: -16%
Pseudomonas aeruginosa [23]
  Activity: -14.8%
Staphylococcus aureus [24]
  Activity: 39.5%
Streptococcus mutans [25]
  Activity: 23.9%
[26]
  Activity: -5.5%
Staphylococcus aureus [27]
  Activity: 10.3%
Pseudomonas aeruginosa [28]
  Activity: 0.7%
Pseudomonas aeruginosa [29]
  Activity: -7.3%
Staphylococcus aureus [30]
  Activity: 134.6%
Staphylococcus aureus [31]
  Activity: 80.5%
[32]
  Activity: -4.7%
[33]
  Activity: -2.4%
[34]
  Activity: -1.5%
Pseudomonas aeruginosa [35]
  Activity: 0.5%
Streptococcus mutans [36]
  Activity: 49%
[37]
  Activity: 10.6%
Streptococcus mutans [38]
  Activity: 14%
Streptococcus mutans [39]
  Activity: 26.9%
Staphylococcus aureus [40]
  Activity: 47.2%
Staphylococcus aureus [41]
  Activity: 47.2%
Pseudomonas aeruginosa [42]
  Activity: -9.5%
